Assay results taken from US20240384268A1, “Oligonucleotides” (Hudson Institute of Medical Research, priority 2021, published 2024).
In the oligonucleotide strings, read from the 5' end, every base follows the letter of its sugar. An asterisk marks phosphorothioate; unmarked linkages are phosphodiester. Other units and linkages are bracketed, terminal groups are in braces. A string of capitals states the bases alone. d = 2'-deoxy (DNA); m = 2'-O-methyl

What was measured:
[1] = target: cGAS (Homo sapiens, UniProt Q8N884); test: ISD70-driven IP-10 production in MG-63 cells; assay type: cell-based; set-up: endogenous in cells; conditions: indicated concentrations up to 500 nM, ~30 min, ISD overnight (FIG. 24)
Chain of cGAS (Q8N884 whole entry): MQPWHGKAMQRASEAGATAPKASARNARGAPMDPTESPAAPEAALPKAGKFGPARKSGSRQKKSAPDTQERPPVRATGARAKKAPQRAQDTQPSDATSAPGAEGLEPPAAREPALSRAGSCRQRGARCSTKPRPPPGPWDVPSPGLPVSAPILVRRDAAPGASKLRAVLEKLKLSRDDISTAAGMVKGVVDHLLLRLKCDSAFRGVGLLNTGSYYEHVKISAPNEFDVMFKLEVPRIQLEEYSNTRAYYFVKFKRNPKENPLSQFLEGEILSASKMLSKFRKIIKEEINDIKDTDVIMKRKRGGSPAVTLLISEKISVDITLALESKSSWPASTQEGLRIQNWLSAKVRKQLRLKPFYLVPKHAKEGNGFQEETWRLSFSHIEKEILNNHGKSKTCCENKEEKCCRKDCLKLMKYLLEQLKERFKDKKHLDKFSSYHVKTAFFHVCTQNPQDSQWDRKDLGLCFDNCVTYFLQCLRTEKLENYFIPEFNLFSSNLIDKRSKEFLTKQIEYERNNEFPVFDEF

[2] = target: T1, TLR8 (Homo sapiens, UniProt Q9NR97); test: HEK-TLR8 NF-κB-luciferase reporter, R848 or Motolimod stimulation (potentiation or inhibition); assay type: cell-based; set-up: expressed in transfected cells; host or cells: 293XLhTLR8 (HEK293); conditions: for TLR8-500 nM: averaged NF-κB-Luciferase relative to R848: HEK-TLR8, 500 nM ASO, fold increase relative to R848 without ASO (Alharbi et al., 2020)
T1 sequence (Q9NR97 27-1041): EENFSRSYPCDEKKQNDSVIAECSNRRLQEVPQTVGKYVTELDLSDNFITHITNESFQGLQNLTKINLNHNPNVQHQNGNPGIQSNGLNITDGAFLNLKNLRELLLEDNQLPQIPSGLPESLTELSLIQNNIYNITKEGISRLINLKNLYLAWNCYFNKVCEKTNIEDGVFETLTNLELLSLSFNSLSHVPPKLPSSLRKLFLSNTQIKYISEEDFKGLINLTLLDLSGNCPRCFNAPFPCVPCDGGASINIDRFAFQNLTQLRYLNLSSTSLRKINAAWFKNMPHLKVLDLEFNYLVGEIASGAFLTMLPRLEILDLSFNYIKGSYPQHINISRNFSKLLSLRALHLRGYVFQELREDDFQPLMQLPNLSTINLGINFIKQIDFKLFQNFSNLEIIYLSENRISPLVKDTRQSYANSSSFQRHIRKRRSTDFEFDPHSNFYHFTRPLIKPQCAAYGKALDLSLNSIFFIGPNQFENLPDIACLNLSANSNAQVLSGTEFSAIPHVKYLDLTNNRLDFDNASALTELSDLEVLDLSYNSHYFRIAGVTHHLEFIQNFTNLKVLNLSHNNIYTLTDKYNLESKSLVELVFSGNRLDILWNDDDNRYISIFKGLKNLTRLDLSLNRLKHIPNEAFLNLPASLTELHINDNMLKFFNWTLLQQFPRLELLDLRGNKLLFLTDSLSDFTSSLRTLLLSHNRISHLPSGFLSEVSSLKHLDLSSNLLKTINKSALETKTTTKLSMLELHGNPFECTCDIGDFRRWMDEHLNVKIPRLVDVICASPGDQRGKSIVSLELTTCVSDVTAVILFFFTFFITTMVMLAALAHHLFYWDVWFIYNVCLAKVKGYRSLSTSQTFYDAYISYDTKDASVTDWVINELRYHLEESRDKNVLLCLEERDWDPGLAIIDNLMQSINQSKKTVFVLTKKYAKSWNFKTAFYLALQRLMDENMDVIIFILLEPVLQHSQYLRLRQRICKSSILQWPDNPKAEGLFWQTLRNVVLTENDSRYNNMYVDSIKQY

| Substance | IP-10 after ISD in MG-63, MOE and LNA ASOs (in words) [1] | TLR8 100 nM (averaged NF-κB-Luciferase level relative to R848 condition, fold increase) ([2]; ASO 100 nM, relative to R848 only) | TLR8 500 nM (averaged NF-κB-Luciferase level relative to R848 condition, fold increase) ([2]; ASO 500 nM, relative to R848 only) | TLR8-500 nM: averaged NF-κB-Luciferase relative to R848 [2] [fold] |
| --- | --- | --- | --- | --- |
| CGCTTTTCTGTCTGGT (antisense; LNA-modified, pattern not given here) [CTNN2B-311 LNA KL] | did not inhibit IP-10 production | 0.920 | 2.896 |  |
| mG*mU*mG*mU*mC*C*T*T*C*A*T*G*C*T*T*mU*mG*mG*mA*mU (GUGUCCTTCATGCTTUGGAU; antisense; sugars from the 5' end m5 d10 m5, all phosphorothioate, methylation of C not given here) [[CDKN2B-AS1]1415] |  |  |  | 1.60 |
| mG*mU*mG*mU*mU*T*T*T*A*A*T*T*T*T*G*mU*mA*mG*mA*mG (mG*mU*mG*mU*mU*dT*dT*dT*dA*dA*dT*dT*dT*dT*dG*mU*mA*mG*mA*mG) [[CDKN2B-AS1]611] |  |  |  | 1.88 |
| mU*mA*mU*mU*mU*C*C*A*C*A*T*G*C*C*C*mA*mG*mU*mG*mU (mU*mA*mU*mU*mU*dC*dC*dA*dC*dA*dT*dG*dC*dC*dC*mA*mG*mU*mG*mU; antisense) [[CDKN2B-AS1]627] |  |  |  | 3.87 |
